Measurements taken from patent publication US20060111378A1, “Substituted 2-anilinopyrimidines as cell-cycle-kinase or receptor-tyrosine-kinase inhibitors, their production and use as pharmaceutical agents” (priority 2004, published 2006).

How the values were obtained:
[1] = test system: MCF7, hormone-independent human breast cancer cells; assay: Proliferation assay MCF7; format: cell-based; details: 96 h, 4 days, crystal violet
Text: (§1) Cultivated human tumor cells (MCF7, hormone-independent human breast cancer cells, related to ATCC HTB22; NCI-H460, human non-small-cell lung cancer cells, ATCC HTB-177, DU 145, hormone-independent human prostate cancer cells, ATCC HTB-81; MaTu-MDR, hormone-independent, multiple pharmaceutical agent-resistant human breast cancer cells, EPO-GmbH, Berlin) were flattened out at a density of about 3000-5000 cells/measuring point, depending on the growth rate of the respective cells, in a 96-well multititer plate in 200 μl of the corresponding growth medium. After 24 hours, the cells of one plate (zero-point plate) were colored with crystal violet (see below), while the medium of the other plates was replaced by fresh culture medium (200 μl), to which the test substances were added in various concentrations (0 μm, as well as in the range of 0.01-30 μm; the final concentration of the solvent dimethyl sulfoxide was 0.5%). The cells were incubated for 4 days in the presence of test substances. The cell proliferation was determined by coloring the cells with crystal violet: the cells were fixed by adding 20 μl/measuring point of an 11% glutaric aldehyde solution for 15 minutes at room temperature. After three washing cycles of the fixed cells with water, the plates were dried at room temperature. The cells were colored by adding 100 μl/measuring point of a 0.1% crystal violet solution (the pH was set at 3 by adding acetic acid). After three washing cycles of the colored cells with water, the plates were dried at room temperature. The dye was dissolved by adding 100 μl/measuring point of a 10% acetic acid solution. The extinction was determined by photometry at a wavelength of 595 nm. The change of cell growth, in percent, was calculated by normalization of the measured values to the extinction values of the zero-point plate (=0%) and the extinction of the untreated (0 μm) cells (=100%).

Human Carboanhydrase-2 = Human Carboanhydrase-2 (Homo sapiens, UniProt P00918); assay: Carboanhydrase assay; format: biochemical; details: 4-nitrophenyl acetate hydrolysis, 60 minutes; read-out: Inhibition of Human Carboanhydrase-2 IC50
Description: 2 μl of the test compounds, dissolved in DMSO (100× the final concentration), in a concentration range of 0.03-10 μm (final), was pipetted as 4× determinations into the holes of a 96-hole microtiter plate. Holes that contained the solvent without test compounds were used as reference values (1. Holes without carboanhydrase for correction of the non-enzymatic hydrolysis of the substrate, and 2. Holes with carboanhydrase for determining the activity of the non-inhibited enzyme).
188 μl of assay buffer (10 mmol of Tris/HCl, pH 7.4, 80 mmol of NaCl), with or without 3 units/hole on carboanhydrase I or II, was pipetted into the holes of the microtiter plate.

MaTu-ADR = assay: Proliferation assay MaTu-ADR; format: cell-based; details: Homo sapiens, 96 h; MaTu-ADR cells, 4 days, crystal violet
Text: as §1

CDK2/CycE = biological target: T1, CDK2/CycE (Homo sapiens, UniProt P24941); assay: CDK2/CycE kinase assay; format: biochemical; details: histone IIIS substrate, 0.5 μm ATP
T1 construct: GST; purchased ProQinase GmbH, Freiburg; host or cells: baculovirus-infected insect cells (Sf9)
Description: Recombinant CDK2- and CycE-GST-fusion proteins, purified from baculovirus-infected insect cells (Sf9), were purchased by ProQinase GmbH, Freiburg. Histone IIIs, which was used as a kinase substrate, was purchased by the Sigma Company.
(§2) CDK2/CycE (50 ng/measuring point) was incubated for 10 minutes at 22° C. in the presence of various concentrations of test substances (0 μm, as well as within the range of 0.01-100 μm) in assay buffer [50 mmol of tris/HCl, pH 8.0, 10 mmol of MgCl2, 0.1 mmol of Na ortho-vanadate, 1.0 mmol of dithiothreitol, 0.5 μm of adenosine triphosphate (ATP), 10 μg/measuring point of histone IIIS, 0.2 μCi/measuring point of ^33P-gamma ATP, 0.05% NP40, 12.5% dimethyl sulfoxide]. The reaction was stopped by adding EDTA solution (250 mmol, pH 8.0, 15 μl/measuring point).
(§3) From each reaction batch, 15 μl was applied to P30 filter strips (Wallac Company), and non-incorporated ^33P-ATP was removed by subjecting the filter strips to three washing cycles for 10 minutes each in 0.5% phosphoric acid. After the filter strips were dried for one hour at 70° C., the filter strips were covered with scintillator strips (MeltiLex™ A, Wallac Company) and baked for one hour at 90° C. The amount of incorporated ^33P (substrate phosphorylation) was determined by scintillation measurement in a gamma-radiation measuring device (Wallac).

[2] = test system: DU 145, hormone-independent human prostate cancer cells; assay: Proliferation assay DU145; format: cell-based; details: DU-145, 96 h, 4 days, crystal violet
Text: as §1

[3] = biological target: T2, VEGF receptor tyrosine kinase-2 (Homo sapiens, UniProt P35968); assay: VEGF receptor-2 kinase assay; format: biochemical; details: poly-(Glu4Tyr) substrate, 8 μmol ATP; read-out: VEGF-R2 IC50
T2 construct: GST; made in house; host or cells: baculovirus-infected insect cells (Sf9)
Description: VEGF Receptor-2 Kinase Assay
Recombinant VEGF receptor tyrosine kinase-2 was purified as a GST fusion protein from baculovirus-infected insect cells (Sf9). Poly-(Glu4Tyr), which was used as a kinase substrate, was purchased by the Sigma Company. VEGF receptor tyrosine kinase (90 ng/measuring point) was incubated for 10 minutes at 22° C. in the presence of various concentrations of test substances (0 μm, as well as within the range of 0.001-30 μm) in 30 μl of assay buffer [40 mmol of Tris/HCl, pH 5.5, 10 mmol of MgCl2, 1 mmol of MnCl2, 3 μmol of Na ortho-vanadate, 1.0 mmol of dithiothreitol, 8 μmol of adenosine trisphosphate (ATP), 0.96 μg/measuring point of poly-(Glu4Tyr), 0.2 μCi/measuring point of 33P-gamma ATP, 1.4% dimethyl sulfoxide]. The reaction was stopped by adding EDTA solution (250 mmol, pH 8.0, 15 μl/measuring point).
as §3, with “33P-ATP” for “^33P-ATP”, “33P” for “^33P”

CDK1/CycB = biological target: T3, CDK1/CycB (Homo sapiens, UniProt P06493); assay: CDK1/CycB kinase assay; format: biochemical; details: histone IIIS substrate, 0.5 μm ATP
T3 construct: GST; purchased ProQinase GmbH, Freiburg; host or cells: baculovirus-infected insect cells (Sf9)
Description: Recombinant CDK1- and CycB-GST-fusion proteins, purified from baculovirus-infected insect cells (Sf9), were purchased from ProQinase GmbH, Freiburg. Histone IIIS, used as a kinase substrate, is available commercially from the Sigma Company.
as §2, with “CDK1/CycB (200” for “CDK2/CycE (50”, “33P-gamma” for “^33P-gamma”, “1.25%” for “12.5%”
as §3, with “33P-ATP” for “^33P-ATP”, “33P” for “^33P”

[4] = test system: NCI-H460, human non-small-cell lung cancer cells; assay: Proliferation assay H460; format: cell-based; details: NCI-H460, 96 h, 4 days, crystal violet
Text: as §1

T2 sequence (P35968 20-1356): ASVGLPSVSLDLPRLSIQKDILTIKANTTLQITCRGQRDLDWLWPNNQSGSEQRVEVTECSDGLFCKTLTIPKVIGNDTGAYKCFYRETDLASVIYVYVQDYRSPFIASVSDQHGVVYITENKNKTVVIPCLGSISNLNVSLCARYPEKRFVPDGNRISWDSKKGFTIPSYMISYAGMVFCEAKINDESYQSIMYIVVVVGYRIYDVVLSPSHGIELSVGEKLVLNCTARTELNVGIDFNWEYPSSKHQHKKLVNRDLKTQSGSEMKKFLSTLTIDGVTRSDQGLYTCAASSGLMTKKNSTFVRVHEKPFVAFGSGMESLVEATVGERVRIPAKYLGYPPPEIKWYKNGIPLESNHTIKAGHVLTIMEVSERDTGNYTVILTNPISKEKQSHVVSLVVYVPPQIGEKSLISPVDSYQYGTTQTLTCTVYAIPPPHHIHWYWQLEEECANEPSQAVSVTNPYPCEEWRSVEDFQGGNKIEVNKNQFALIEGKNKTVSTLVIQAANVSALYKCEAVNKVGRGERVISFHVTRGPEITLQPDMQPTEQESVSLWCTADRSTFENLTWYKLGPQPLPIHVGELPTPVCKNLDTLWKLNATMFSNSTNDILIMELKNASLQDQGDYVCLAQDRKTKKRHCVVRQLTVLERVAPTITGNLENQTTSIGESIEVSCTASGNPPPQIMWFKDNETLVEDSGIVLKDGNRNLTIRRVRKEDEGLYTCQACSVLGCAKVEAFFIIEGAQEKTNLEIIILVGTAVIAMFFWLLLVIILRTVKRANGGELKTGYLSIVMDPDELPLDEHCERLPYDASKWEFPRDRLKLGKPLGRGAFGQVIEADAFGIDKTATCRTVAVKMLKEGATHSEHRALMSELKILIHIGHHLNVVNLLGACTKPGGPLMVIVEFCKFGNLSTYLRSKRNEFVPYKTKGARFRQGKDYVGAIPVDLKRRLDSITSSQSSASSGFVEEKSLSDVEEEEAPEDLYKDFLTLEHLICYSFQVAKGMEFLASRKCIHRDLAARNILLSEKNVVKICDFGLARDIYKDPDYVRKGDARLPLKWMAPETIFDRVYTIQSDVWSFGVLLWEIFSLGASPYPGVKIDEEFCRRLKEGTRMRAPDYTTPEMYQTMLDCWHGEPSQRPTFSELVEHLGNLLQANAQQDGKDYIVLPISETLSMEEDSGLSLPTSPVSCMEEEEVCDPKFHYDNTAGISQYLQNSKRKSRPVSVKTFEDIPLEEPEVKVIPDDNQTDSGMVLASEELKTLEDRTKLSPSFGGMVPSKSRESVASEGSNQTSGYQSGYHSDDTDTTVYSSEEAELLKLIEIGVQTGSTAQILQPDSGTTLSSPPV
T3 sequence (P06493 whole entry): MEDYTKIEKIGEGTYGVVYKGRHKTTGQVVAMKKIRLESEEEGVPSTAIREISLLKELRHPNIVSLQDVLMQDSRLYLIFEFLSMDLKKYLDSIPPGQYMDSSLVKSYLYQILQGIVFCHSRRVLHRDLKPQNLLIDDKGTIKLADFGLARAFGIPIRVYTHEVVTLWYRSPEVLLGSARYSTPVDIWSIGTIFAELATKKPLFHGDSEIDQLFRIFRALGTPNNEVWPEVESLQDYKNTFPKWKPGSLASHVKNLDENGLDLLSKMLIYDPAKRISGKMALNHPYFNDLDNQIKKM
T3 sequence (P14635 whole entry partner): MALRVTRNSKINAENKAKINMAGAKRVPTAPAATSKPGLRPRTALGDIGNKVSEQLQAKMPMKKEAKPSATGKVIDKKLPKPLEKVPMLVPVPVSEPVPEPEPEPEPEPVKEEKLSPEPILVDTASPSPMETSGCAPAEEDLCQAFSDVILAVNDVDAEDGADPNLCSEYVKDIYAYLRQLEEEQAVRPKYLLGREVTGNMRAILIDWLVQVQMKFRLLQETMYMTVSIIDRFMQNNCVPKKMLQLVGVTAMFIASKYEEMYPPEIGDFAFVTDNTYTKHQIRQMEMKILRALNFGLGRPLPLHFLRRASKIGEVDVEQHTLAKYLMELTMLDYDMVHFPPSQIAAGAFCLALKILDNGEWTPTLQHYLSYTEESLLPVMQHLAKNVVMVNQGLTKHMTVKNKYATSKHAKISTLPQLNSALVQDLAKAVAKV

| SMILES | IC50 [1] | IC50 (Human Carboanhydrase-2) | IC50 (MaTu-ADR) | IC50 (CDK2/CycE) | IC50 [2] | IC50 [3] | IC50 (CDK1/CycB) | IC50 [4] |
| --- | --- | --- | --- | --- | --- | --- | --- | --- |
| Cc1cc(Nc2ncc(Br)c(N[C@H](C)[C@@H](C)O)n2)cc(C)c1S(N)(=O)=O [Example 3] | < 0.1 µM | > 10 µM | 0.04 µM | 0.006 µM | 0.07 µM | 0.019 µM | 0.005 µM | 0.05 µM |
| Cc1cc(Nc2ncc(Br)c(N[C@H](C)CO)n2)cc(C)c1S(N)(=O)=O [Example 1, 4-[5-Bromo-4-((R)-2-hydroxy-1-methyl-ethylamino)-pyrimidin-2-ylamino]-2,6-dimethyl-benzenesulfonamide] | 0.6 µM | > 10 µM | 0.4 µM | 0.014 µM | 0.4 µM | 0.018 µM | 0.015 µM | 0.3 µM |
| Cc1cc(Nc2ncc(Br)c(O[C@H](C)[C@@H](C)O)n2)cc(C)c1S(N)(=O)=O [Example 6, 4-[5-Bromo-4-((1R,2R)-2-hydroxy-1-methyl-propoxy)-pyrimidin-2-ylamino]-2,6-dimethyl-benzenesulfonamide] | 0.05 µM | > 10 µM | 0.02 µM | 0.008 µM | 0.05 µM | 0.039 µM | 0.008 µM | 0.05 µM |
| C[C@@H](Nc1nc(Nc2ccc(S(N)(=O)=O)cc2)ncc1Br)C(C)(C)O [Example 271 from WO 02/096888, 4-[5-Bromo-4-((R)-2-hydroxy-1,2-dimethyl-propylamino)-pyrimidin-2-ylamino]-benzenesulfonamide, reference compound] | 0.18 µM | 0.53 µM | < 0.1 µM | < 0.01 µM | 0.15 µM | 0.25 µM | < 0.01 µM | 0.2 µM |
| C[C@@H](O)[C@@H](C)Nc1nc(Nc2ccc(S(N)(=O)=O)cc2)ncc1Br [Example 275 from WO 02/096888, 4-[5-Bromo-4-((1R,2R)-2-hydroxy-1-methyl-propylamino)-pyrimidin-2-ylamino]-benzenesulfonamide, reference compound] | 0.05 µM | 0.81 µM | 0.02 µM | < 0.01 µM | 0.07 µM | 0.13 µM | < 0.01 µM | 0.04 µM |
| Cc1cc(Nc2ncc(Br)c(N[C@H](C)[C@@H](C)O)n2)cc(Cl)c1S(N)(=O)=O [Example 4] | 0.12 µM | – | < 0.1 µM | 0.01 µM | 0.1 µM | 0.13 µM | 0.005 µM | < 0.1 µM |
| Cc1cc(Nc2ncc(Br)c(O[C@H](C)[C@@H](C)O)n2)cc(Br)c1S(N)(=O)=O [Example 7] | 0.12 µM | 6 µM | 0.05 µM | 0.015 µM | 0.16 µM | 0.056 µM | 0.012 µM | 0.16 µM |
| Cc1cc(Nc2ncc(Br)c(N[C@H](C)C(C)(C)O)n2)cc(C)c1S(N)(=O)=O [Example 2] | < 0.1 µM | > 10 µM | 0.07 µM | 0.002 µM | 0.09 µM | 0.02 µM | 0.003 µM | 0.13 µM |
